{"source": "paper PMC10295947", "about": "(Biomolecules, 2023)", "target": "MOR (Mus musculus, UniProt P42866)", "sequence (P42866 whole entry)": "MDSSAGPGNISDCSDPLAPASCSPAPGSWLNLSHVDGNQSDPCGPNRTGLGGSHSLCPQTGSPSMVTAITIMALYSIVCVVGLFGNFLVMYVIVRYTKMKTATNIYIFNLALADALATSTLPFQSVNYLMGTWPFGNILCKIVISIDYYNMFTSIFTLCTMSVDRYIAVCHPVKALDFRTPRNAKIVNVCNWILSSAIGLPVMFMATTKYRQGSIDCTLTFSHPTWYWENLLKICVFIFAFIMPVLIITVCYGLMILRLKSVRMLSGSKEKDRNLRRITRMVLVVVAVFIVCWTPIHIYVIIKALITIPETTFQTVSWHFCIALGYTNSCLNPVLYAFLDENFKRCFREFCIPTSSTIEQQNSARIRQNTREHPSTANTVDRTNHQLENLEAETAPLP", "type": "biochemical", "note": "Structures can show the parent of a compound that is named as a salt.", "data": [{"molecule": "COc1ccsc1CNCC[C@@]1(c2ccccn2)CCOC2(CCCC2)C1", "note": "[oliceridine, Oliceridine hydrochloride]", "values": [{"measurement": "Stimulation of 35S-GTPγS binding (in words)", "result": "no measurable stimulation"}]}]}
